In patent publication US20240124417A1, “COMPOUNDS USEFUL AS IMMUNOMODULATORS” (Bristol-Myers Squibb Company, priority 2019, published 2024):

What follows are compounds tested against T1, PD-1/PD-L1 (Homo sapiens, UniProt Q9NZQ7) (assay: PD-1/PD-L1 Homogenous Time-Resolved Fluorescence (HTRF) binding assay). Conditions: PD-L1-His 10 nM, PD-1-Ig 20 nM.
T1 construct: TVMV protease site linker (C); made in house; host or cells: HEK293T cells
Text: The ability of the compounds of the invention to bind to PD-L1 was investigated using a PD-1/PD-L1 Homogenous Time-Resolved Fluorescence (HTRF) binding assay.
Homogenous Time-Resolved Fluorescence (HTRF) binding assay.
The interaction of PD-1 and PD-L1 can be assessed using soluble, purified preparations of the extracellular domains of the two proteins. The PD-1 and PD-L1 protein extracellular domains were expressed as fusion proteins with detection tags, for PD-1, the tag was the Fc portion of Immunoglobulin (PD-1-Ig) and for PD-L1 it was the 6 histidine motif (PD-L1-His). All binding studies were performed in an HTRF assay buffer consisting of dPBS supplemented with 0.1% […] bovine serum albumin and 0.05% (v/v) Tween-20. For the h/PD-L1-His binding assay, inhibitors were pre-incubated with PD-L1-His (10 nM final) for 15 m in 4 μl of assay buffer, followed by addition of PD-1-Ig (20 nM final) in 1 μl of assay buffer and further incubation for 15 m. HTRF detection was achieved using europium crypate-labeled anti-Ig (1 nM final) and allophycocyanin (APC) labeled anti-His (20 nM final). Antibodies were diluted in HTRF detection buffer and 5 μl was dispensed on top of the binding reaction. […] Additional binding assays were established between the human proteins PD-1-Ig/PD-L2-His (20 & 5 nM, respectively) and CD80-His/PD-L1-Ig (100 & 10 nM, respectively). […]

T1 sequence (Q9NZQ7 18-239): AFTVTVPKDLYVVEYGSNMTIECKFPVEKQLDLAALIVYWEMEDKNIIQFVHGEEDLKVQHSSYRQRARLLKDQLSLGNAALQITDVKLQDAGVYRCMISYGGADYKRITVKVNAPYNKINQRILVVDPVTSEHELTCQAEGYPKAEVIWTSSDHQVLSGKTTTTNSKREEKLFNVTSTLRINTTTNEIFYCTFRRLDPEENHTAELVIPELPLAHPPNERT

IC50 [nM] | SMILES
0.5 | CC(=O)NC1CCN(CCCOc2cccc(-c3cccc(COc4cc(OCc5cncc(C#N)c5)c(CN5CCCC(c6nnn[nH]6)C5)cc4Cl)c3C)c2C)CC1 (stereo not drawn) [Example 1041, N-(1-(3-((3′-((4-((3-(1H-Tetrazol-5-yl)piperidin-1-yl)methyl)-2-chloro-5-((5-cyano-pyridin-3-yl)methoxy)phenoxy)methyl)-2,2′-dimethyl-[1,1′-biphenyl]-3-yl)oxy)propyl)-piperidin-4-yl)acetamide]
0.2 | CC(=O)NC1CCN(CCCOc2cccc(-c3cccc(COc4cc(OCc5cncc(C#N)c5)c(CN5CCC(c6nnn[nH]6)C5)cc4Cl)c3C)c2C)CC1 (stereo not drawn) [Example 1042, N-(1-(3-((3′-((4-((3-(1H-Tetrazol-5-yl)pyrrolidin-1-yl)methyl)-2-chloro-5-((5-cyano-pyridin-3-yl)methoxy)phenoxy)methyl)-2,2′-dimethyl-[1,1′-biphenyl]-3-yl)oxy)propyl)-piperidin-4-yl)acetamide]
3.1 | CC(=O)NC1CCN(CCCOc2cccc(-c3cccc(COc4cc(OCc5cncc(C#N)c5)c(CNC(C)c5nnn[nH]5)cc4Cl)c3C)c2C)CC1 (stereo not drawn) [Example 1043, N-(1-(3-((3′-((4-(((1-(1H-Tetrazol-5-yl)ethyl)amino)methyl)-2-chloro-5-((5-cyanopyridin-3-yl)methoxy)phenoxy)methyl)-2,2′-dimethyl-[1,1′-biphenyl]-3-yl)oxy)propyl)piperidin-4-yl)acetamide]
0.5 | CC(=O)NC1CCN(CCCOc2cccc(-c3cccc(COc4cc(OCc5cncc(C#N)c5)c(CN(C)Cc5nnn[nH]5)cc4Cl)c3C)c2C)CC1 [Example 1044, N-(1-(3-((3′-((4-((((1H-Tetrazol-5-yl)methyl)(methyl)amino)methyl)-2-chloro-5-((5-cyanopyridin-3-yl)methoxy)phenoxy)methyl)-2,2′-dimethyl-[1,1′-biphenyl]-3-yl)oxy)-propyl)piperidin-4-yl)acetamide]
3.8 | CC(=O)NC1CCN(CCCOc2cccc(-c3cccc(COc4cc(OCc5cncc(C#N)c5)c(CN5CCCCC5c5ncc[nH]5)cc4Cl)c3C)c2C)CC1 (stereo not drawn) [Example 1045, N-(1-(3-((3′-((4-((2-(1H-Imidazol-2-yl)piperidin-1-yl)methyl)-2-chloro-5-((5-cyano-pyridin-3-yl)methoxy)phenoxy)methyl)-2,2′-dimethyl-[1,1′-biphenyl]-3-yl)oxy)propyl)-piperidin-4-yl)acetamide]
1.9 | CC(=O)NC1CCN(CCCOc2cccc(-c3cccc(COc4cc(OCc5cncc(C#N)c5)c(CNCc5nnn[nH]5)cc4Cl)c3C)c2C)CC1 [Example 1046, N-(1-(3-((3′-((4-((((1H-Tetrazol-5-yl)methyl)amino)methyl)-2-chloro-5-((5-cyanopyridin-3-yl)methoxy)phenoxy)methyl)-2,2′-dimethyl-[1,1′-biphenyl]-3-yl)oxy)propyl)piperidin-4-yl)acetamide]
2.4 | CC(=O)NC1CCN(CCCOc2cccc(-c3cccc(COc4cc(OCc5cncc(C#N)c5)c(CN(C)CC(C)c5nn[nH]n5)cc4Cl)c3C)c2C)CC1 (stereo not drawn) [Example 1047, N-(1-(3-((3′-((4-(((2-(2H-Tetrazol-5-yl)propyl)(methyl)amino)methyl)-2-chloro-5-((5-cyanopyridin-3-yl)methoxy)phenoxy)methyl)-2,2′-dimethyl-[1,1′-biphenyl]-3-yl)oxy)-propyl)piperidin-4-yl)acetamide]
0.5 | CC(=O)NC1CCN(CCCOc2cccc(-c3cccc(COc4cc(OCc5cncc(C#N)c5)c(CN5CCCCC5c5nnn[nH]5)cc4Cl)c3C)c2C)CC1 (stereo not drawn) [Example 1048, N-(1-(3-((3′-((4-((2-(1H-Tetrazol-5-yl)piperidin-1-yl)methyl)-2-chloro-5-((5-cyano-pyridin-3-yl)methoxy)phenoxy)methyl)-2,2′-dimethyl-[1,1′-biphenyl]-3-yl)oxy)propyl)-piperidin-4-yl)acetamide]
2.5 | CC(=O)NC1CCN(CCCOc2cccc(-c3cccc(COc4cc(OCc5cncc(C#N)c5)c(CNCCc5nnnn5C)cc4Cl)c3C)c2C)CC1 [Example 1049, N-(1-(3-((3′-((2-Chloro-5-((5-cyanopyridin-3-yl)methoxy)-4-(((2-(1-methyl-1H-tetrazol-5-yl)ethyl)amino)methyl)phenoxy)methyl)-2,2′-dimethyl-[1,1′-biphenyl]-3-yl)oxy)-propyl)piperidin-4-yl)acetamide]
0.7 | CC(=O)NC1CCN(CCCOc2cccc(-c3cccc(COc4cc(OCc5cncc(C#N)c5)c(CNCC(C)c5nnn[nH]5)cc4Cl)c3C)c2C)CC1 (stereo not drawn) [Example 1050, N-(1-(3-((3′-((4-(((2-(1H-Tetrazol-5-yl)propyl)amino)methyl)-2-chloro-5-((5-cyano-pyridin-3-yl)methoxy)phenoxy)methyl)-2,2′-dimethyl-[1,1′-biphenyl]-3-yl)oxy)propyl)-piperidin-4-yl)acetamide]
2.1 | CC(=O)NC1CCN(CCCOc2cccc(-c3cccc(COc4cc(OCc5cncc(C#N)c5)c(CN5CCCC5c5nnn[nH]5)cc4Cl)c3C)c2C)CC1 (stereo not drawn) [Example 1051, N-(1-(3-((3′-((4-((2-(1H-Tetrazol-5-yl)pyrrolidin-1-yl)methyl)-2-chloro-5-((5-cyano-pyridin-3-yl)methoxy)phenoxy)methyl)-2,2′-dimethyl-[1,1′-biphenyl]-3-yl)oxy)propyl)-piperidin-4-yl)acetamide]
3.4 | CC(=O)NC1CCN(CCCOc2cccc(-c3cccc(COc4cc(OCc5cncc(C#N)c5)c(CN5CCC(c6cnn(C)c6)C5)cc4Cl)c3C)c2C)CC1 (stereo not drawn) [Example 1052, N-(1-(3-((3′-((2-Chloro-5-((5-cyanopyridin-3-yl)methoxy)-4-((3-(1-methyl-1H-pyrazol-4-yl)pyrrolidin-1-yl)methyl)phenoxy)methyl)-2,2′-dimethyl-[1,1′-biphenyl]-3-yl)oxy)-propyl)piperidin-4-yl)acetamide]
7.6 | CC(=O)NC1CCN(CCCOc2cccc(-c3cccc(COc4cc(OCc5cncc(C#N)c5)c(CN5CCCCC5c5cc[nH]n5)cc4Cl)c3C)c2C)CC1 (stereo not drawn) [Example 1053, N-(1-(3-((3′-((4-((2-(1H-Pyrazol-3-yl)piperidin-1-yl)methyl)-2-chloro-5-((5-cyano-pyridin-3-yl)methoxy)phenoxy)methyl)-2,2′-dimethyl-[1,1′-biphenyl]-3-yl)oxy)propyl)-piperidin-4-yl)acetamide]
3 | CC(=O)NC1CCN(CCCOc2cccc(-c3cccc(COc4cc(OCc5cncc(C#N)c5)c(CN5CCCCC5c5cnn(C)c5)cc4Cl)c3C)c2C)CC1 (stereo not drawn) [Example 1054, N-(1-(3-((3′-((2-Chloro-5-((5-cyanopyridin-3-yl)methoxy)-4-((2-(1-methyl-1H-pyrazol-4-yl)piperidin-1-yl)methyl)phenoxy)methyl)-2,2′-dimethyl-[1,1′-biphenyl]-3-yl)oxy)-propyl)piperidin-4-yl)acetamide]
1.2 | CC(=O)NC1CCN(CCCOc2cccc(-c3cccc(COc4cc(OCc5cncc(C#N)c5)c(CN5CCCCC5c5nnn[nH]5)cc4Cl)c3C)c2Cl)CC1 (stereo not drawn) [Example 1055, N-(1-(3-((3′-((4-((2-(1H-Tetrazol-5-yl)piperidin-1-yl)methyl)-2-chloro-5-((5-cyano-pyridin-3-yl)methoxy)phenoxy)methyl)-2-chloro-2′-methyl-[1,1′-biphenyl]-3-yl)oxy)-propyl)-piperidin-4-yl)acetamide]
